According to patent US20230034660A1, “PEPTIDES THAT ENHANCE NMDA RECEPTOR FUNCTION AND USE THEREOF” (University of Pittsburgh - Of the Commonwealth System of …, priority 2019, published 2023):

System: NMDAR
Assay: NMDAR-mediated currents evoked by uncaging MNI-caged glutamate in cortical cultures, ZX1 potentiation
Assay type: cell-based, rat
Conditions: cortical cultures treated with peptide 3 μM overnight; held at −70 mV, Mg2+ free
Procedure: FIGS. 5A-5C: N2AZ reduces zinc inhibition of NMDAR currents in cortical cultures. (FIG. 5A) Representative image of a neuron in cortical culture filled with Alexa 548 during whole cell recording. Asterisk represents location of laser photolysis of MNI-caged glutamate (40 μM, 1 millisecond pulse) used to evoke EPSCs. (FIG. 5B) Sample traces of NMDAR EPSCs, averaged over 5 sweeps, evoked by photolysis of MNI-caged glutamate in cortical cultures held at −70 mV in Mg^2 + free solution. […] Bar graphs represent the average potentiation of responses 5 minutes after ZX1 application. Errors bars indicate mean±SEM. […]
Whole-cell recordings from cultured cortical neurons were obtained with glass micropipettes (3-6 MΩ) containing 140 mM CsF, 10 mM CsEGTA, 1 mM CaCl2, 10 mM HEPES, pH=7,2, 295 mOsm. […] Using ephus (Suter et al. 2010) and a Multiclamp 700B amplifier (Molecular Devices), NMDAR excitatory postsynaptic currents (EPSCs) were recorded in voltage clamp (held at −70 mV) in the presence of TTX (300 nM to prevent synaptic activity), DNQX (20 μM, AMPA and kainate receptor antagonist), and 4-Methoxy-7-nitroindolinyl (MNI)-caged glutamate (40 μM). […] The ZX1-mediated potentiation for each cell was calculated as the average percent increase in responses following application of the metal chelator across these 4 uncaging locations. […]

Sequence | ZX1 potentiation of NMDAR-mediated currents above baseline [%]
NDSYLRSSL [Peptide N2AZ] | 1.34±3.48
SNLSDSYDR [scN2AZ, reference compound] | 37.40±11.63
